Laboratory results as given in patent US20260061026A1, “COMBINATION OF INOSITOL PHOSPHORYLCERAMIDE SYNTHETASE INHIBITOR AND AMPHOTERICIN B, AND USE THEREOF” (priority 2023, published 2026).

Tested on: Cryptococcus neoformans var. grubii H99
Assay: Fungicidal efficacy (CFU survival rate) of AbA, AmB and their combination, with or without IPC
Format: cell-based
Settings: AmB 1 μg/mL, 1 hour in YPD medium; for the combination AbA 1 μg/mL added 6 hours before AmB
Experimental: In this example, the antifungal activity of AbA was evaluated. Specifically, the inventors tested the activity of AbA alone and in combination with AmB against Cryptococcus. In addition, the inventors also tested the effect of purified IPC on the antifungal activity of AbA alone and in combination with AmB against Cryptococcus. The specific experimental procedures are as follows.
In this example, a total of 5 groups were set up, including AbA alone, AmB alone, AbA combined with AmB, AbA combined with AmB in the presence of 1 mg/mL IPC, and AbA combined with AmB in the presence of 10 mg/mL IPC. The fungicidal efficacy of the above 5 groups of treatments against Cryptococcus neoformans var. grubii H99 (a laboratory strain) was evaluated. The survival rate of Cryptococcus after 1 hour of treatment with AmB in YPD medium was determined by calculating the CFU ratio between AmB-treated and untreated samples. AbA and IPC were added 6 hours prior to AmB treatment as a pre-treatment. AbA was purchased from Biorigin, AmB from Inalco, and IPC was extracted from an ERG6 gene knockout H99 mutant strain defective in ergosterol biosynthesis.

SMILES: C[C@@H]1[C@H](O)[C@@H](C)/C=C/C=C/C=C/C=C/C=C/C=C/C=C/[C@H](O[C@@H]2O[C@H](C)[C@@H](O)[C@H](N)[C@@H]2O)C[C@@H]2O[C@](O)(C[C@@H](O)C[C@@H](O)[C@H](O)CC[C@@H](O)C[C@@H](O)CC(=O)O[C@H]1C)C[C@H](O)[C@H]2C(=O)O [AmB, amphotericin B]
- survival rate of Cryptococcus neoformans (CFU ratio between AmB-treated and untreated samples): 39%
